Structures can show the parent of a compound that is named as a salt.
Legend:
human S1P5 receptor = target: T1, human S1P5 receptor (Homo sapiens, UniProt Q9H228); test: In vitro functional activity (agonism), CHO-human-S1P5-Aequorin assay; assay type: cell-based; details: read-out: S1P5 pEC50 (converted)
T1 construct: host or cells: CHO (AequoScreen recombinant cell line, co-expressing mitochondrially targeted apo-aequorin)
Description: In Vitro Functional Activity (Agonism) on Human S1P5 Receptors
The CHO-human-S1P5-Aeqorin assay was bought from Euroscreen, Brussels (Euroscreen, Technical dossier, Human Lysophospholid S1P5 (Edg8) receptor, DNA clone and CHO AequoScreen™ recombinant cell-line, catalog no: ES-593-A, September 2006). Human-S1P5-Aequorin cells express mitochondrial targeted apo-Aequorin. Cells have to be loaded with coelanterazine, in order to reconstitute active Aequorin. After binding of agonists to the human S1P5 receptor the intracellular calcium concentration increases and binding of calcium to the apo-Aequorin/coelenterazine complex leads to an oxidation reaction of coelenterazine, which results in the production of apo-Aequorin, coelenteramide, CO2 and light (λmax 469 nm). This luminescent response is dependent on the agonist concentration. Luminescence is measured using the MicroBeta Jet (Perkin Elmer). Agonistic effects of compounds are expressed as pEC50. Compounds were tested at a 10 points half log concentration range, and 3 independent experiments were performed in single point's measurements.

T1 sequence (Q9H228 whole entry): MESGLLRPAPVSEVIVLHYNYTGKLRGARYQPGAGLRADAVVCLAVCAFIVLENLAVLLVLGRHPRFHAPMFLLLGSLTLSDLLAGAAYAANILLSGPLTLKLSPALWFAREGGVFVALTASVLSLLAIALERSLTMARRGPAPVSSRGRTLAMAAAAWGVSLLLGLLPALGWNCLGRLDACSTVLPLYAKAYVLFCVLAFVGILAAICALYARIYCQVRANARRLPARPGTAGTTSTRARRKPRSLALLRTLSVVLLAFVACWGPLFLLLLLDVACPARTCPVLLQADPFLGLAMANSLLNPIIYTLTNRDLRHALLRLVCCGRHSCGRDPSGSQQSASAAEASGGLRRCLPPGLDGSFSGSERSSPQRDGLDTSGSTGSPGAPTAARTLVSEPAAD

SMILES	melting point [°C]	EC50 (human S1P5 receptor) [µM]
Cl.O=C(O)CCN1CCOC(c2cccc(OCc3ccccc3Cl)c2)C1 (stereo not drawn)	233 to 234	–
COc1cc(C2CN(CCC(=O)O)CCO2)ccc1OCc1c(F)cccc1Cl.Cl (stereo not drawn)	169 to 171	–
Cc1ccc(COc2ccc(C3CN(CCC(=O)O)CCO3)cc2)c(Cl)c1 (stereo not drawn) [Compound 196, 3-{2-[4-(2-Chloro-4-methyl-benzyloxy)-phenyl]-morpholin-4-yl}-propionic acid hydrochloride]	–	1
CC(C)c1cc(Cl)c(COc2ccc(C3CN(CCC(=O)O)CCO3)cc2)c(Cl)c1.Cl (stereo not drawn)	108 to 110	–
COc1cc(C2CN(CCC(=O)O)CCO2)ccc1OCc1c(Cl)cccc1Cl.Cl (stereo not drawn)	214 to 216	–
Cl.O=C(O)CCN1CCOC(c2ccc(OCc3ccccc3C(F)(F)F)c(Cl)c2)C1 (stereo not drawn)	199 to 201	–
O=C(O)CCN1CCOC(c2ccc(OC3CCc4ccccc43)cc2)C1 (stereo not drawn) [Compound 219, 3-{2-[4-(Indan-1-yloxy)-phenyl]-morpholin-4-yl}propionic acid]	124 to 129.5	–
CC#Cc1cc(Cl)c(COc2ccc(C3CN(CCC(=O)O)CCO3)cc2)c(Cl)c1.Cl (stereo not drawn)	220 to 224	–
CCCCCCCCSc1ccc(C2CN(CCC(=O)O)CCO2)cc1 (stereo not drawn) [Compound 204, 3-[2-(4-Octylsulfanyl-phenyl)-morpholin-4-yl]-propionic acid Hydrochloride]	–	0.398
CCCc1cc(Cl)c(COc2ccc(C3CN(CCC(=O)O)CCO3)cc2)c(Cl)c1.Cl (stereo not drawn)	101 to 103	–
Cl.O=C(O)CCN1CCOC(c2cccc(OCc3ccccc3)c2)C1 (stereo not drawn)	222 to 225	–
Cl.O=C(O)CCN1CCSC(c2ccc(OCc3ccccc3Cl)cc2)C1 (stereo not drawn)	178 to 182	–
O=C(O)CCN1CCOC(c2ccc(OC3COc4ccccc43)cc2)C1 (stereo not drawn) [Compound 221, 3-{2-[4-(2,3-Dihydro-benzofuran-3-yloxy)-phenyl]-morpholin-4-yl}-propionic acid]	141.5 to 144.5	–

Now from value to compound:

melting point [°C]	EC50 (human S1P5 receptor) [µM]	SMILES
179 to 182	–	Cl.O=C(O)CCN1CCOC(c2ccc(OCc3c(Cl)cccc3OC(F)(F)F)cc2C(F)(F)F)C1 (stereo not drawn)
214 to 215	–	CCc1cccc(Cl)c1COc1ccc(C2CN(CCC(=O)O)CCO2)c(C(F)(F)F)c1.Cl (stereo not drawn)
209 to 211	–	Cl.O=C(O)CCN1CCOC(c2ccc(OCc3cccc(C(F)(F)F)c3)cc2C(F)(F)F)C1 (stereo not drawn)
203 to 204	–	Cl.O=C(O)CCN1CCOC(c2ccc(OCc3c(Cl)cccc3C3CC3)cc2C(F)(F)F)C1 (stereo not drawn)
189 to 190	–	Cl.O=C(O)CCN1CCOC(c2ccc(OCc3c(F)cccc3Cl)cc2F)C1 (stereo not drawn)
201 to 201.5	–	Cl.O=C(O)CCN1CCOC(c2ccc(OCc3ccccc3C(F)(F)F)cc2F)C1 (stereo not drawn)
195 to 197	–	Cl.O=C(O)CCN1CCOC(c2ccc(OCc3c(Cl)cccc3Cl)cc2C(F)(F)F)C1 (stereo not drawn)
206 to 210	–	CC(C)c1cccc(Cl)c1COc1ccc(C2CN(CCC(=O)O)CCO2)c(C(F)(F)F)c1.Cl (stereo not drawn)
229 to 230	–	Cl.O=C(O)CCN1CCOC(c2cccc(OCc3c(Cl)cccc3Cl)c2)C1 (stereo not drawn)
200 to 201	–	Cl.O=C(O)CCN1CCOC(c2ccc(OCc3c(Cl)cccc3C(F)(F)F)cc2C(F)(F)F)C1 (stereo not drawn)
171.5 to 172.5	–	Cl.O=C(O)CCN1CCOC(c2ccc(OCc3c(F)cccc3Cl)cc2C(F)(F)F)C1 (stereo not drawn)
